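Step 1: Grow cells in 96-well plates. Step 2: Expose to compound for 48 hours at 5 concentrations. Step 3: Interpolate endpoints linearly; if unreached, use highest concentration. Abbreviation: GI50, concentration required for 50% inhibition of growth. TGI: total growth inhibition.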
Columns and labels:
Test in all cases: NCI tumour cell line growth inhibition, 48 h
DU-145 prostate = test system: DU-145 prostate
HCT-116 colon = test system: HCT-116 colon
SF-295 CNS = test system: SF-295 CNS
SK-OV-3 ovarian = test system: SK-OV-3 ovarian
PC-3 prostate = test system: PC-3 prostate
NCI/ADR-RES ovarian = test system: NCI/ADR-RES ovarian
KM12 colon = test system: KM12 colon
K-562 leukemia = test system: K-562 leukemia
NCI-H460 lung = test system: NCI-H460 lung
OVCAR-5 ovarian = test system: OVCAR-5 ovarian
RPMI-8226 leukemia = test system: RPMI-8226 leukemia
SF-539 CNS = test system: SF-539 CNS
UACC-257 melanoma = test system: UACC-257 melanoma
MCF7 breast = test system: MCF7 breast
HT29 colon = test system: HT29 colon
MOLT-4 leukemia = test system: MOLT-4 leukemia
CAKI-1 renal = test system: CAKI-1 renal
OVCAR-4 ovarian = test system: OVCAR-4 ovarian
A549 NSCLC = test system: A549 NSCLC
SN12C renal = test system: SN12C renal
786-0 renal = test system: 786-0 renal
SK-MEL-28 melanoma = test system: SK-MEL-28 melanoma
MDA-MB-435 = test system: MDA-MB-435
MALME-3M melanoma = test system: MALME-3M melanoma
MDA-MB-231 breast = test system: MDA-MB-231 breast
SNB-75 CNS = test system: SNB-75 CNS
A498 renal = test system: A498 renal

Work on [N-]=[N+]=Nc1ncc(-c2ccc(C(F)(F)F)cc2)c(NC2CCCCCC2)n1 yielded a GI50 (DU-145 prostate) greater than 10 µM, a TGI (DU-145 prostate) greater than 10 µM and a GI50 (HCT-116 colon) greater than 10 µM. It also gave a TGI (HCT-116 colon) greater than 10 µM, a GI50 (SF-295 CNS) greater than 10 µM and a TGI (SF-295 CNS) greater than 10 µM. The GI50 (SK-OV-3 ovarian) was greater than 10 µM, the TGI (SK-OV-3 ovarian) was greater than 10 µM and the GI50 (PC-3 prostate) was greater than 10 µM. The TGI (PC-3 prostate) was greater than 10 µM, the GI50 (NCI/ADR-RES ovarian) was greater than 10 µM and the TGI (NCI/ADR-RES ovarian) was greater than 10 µM. For the same compound, the GI50 (KM12 colon) was greater than 10 µM, the TGI (KM12 colon) was greater than 10 µM and the GI50 (K-562 leukemia) was greater than 10 µM. The TGI (K-562 leukemia) was greater than 10 µM, the GI50 (NCI-H460 lung) was greater than 10 µM and the TGI (NCI-H460 lung) was greater than 10 µM. The GI50 (OVCAR-5 ovarian) was greater than 10 µM, the TGI (OVCAR-5 ovarian) was greater than 10 µM and the GI50 (RPMI-8226 leukemia) was greater than 10 µM. For the same compound, the TGI (RPMI-8226 leukemia) was greater than 10 µM, the GI50 (SF-539 CNS) was greater than 10 µM and the TGI (SF-539 CNS) was greater than 10 µM. The GI50 (UACC-257 melanoma) was greater than 10 µM, the TGI (UACC-257 melanoma) was greater than 10 µM and the GI50 (MCF7 breast) was greater than 10 µM. For the same compound, the TGI (MCF7 breast) was greater than 10 µM, the GI50 (HT29 colon) was greater than 10 µM and the TGI (HT29 colon) was greater than 10 µM. It also gave a GI50 (MOLT-4 leukemia) greater than 10 µM, a TGI (MOLT-4 leukemia) greater than 10 µM and a GI50 (CAKI-1 renal) greater than 10 µM. The TGI (CAKI-1 renal) was greater than 10 µM, the GI50 (OVCAR-4 ovarian) was greater than 10 µM and the TGI (OVCAR-4 ovarian) was greater than 10 µM. For the same compound, the GI50 (A549 NSCLC) was greater than 10 µM, the TGI (A549 NSCLC) was greater than 10 µM and the GI50 (SN12C renal) was greater than 10 µM. It also gave a TGI (SN12C renal) greater than 10 µM, a GI50 (786-0 renal) greater than 10 µM and a TGI (786-0 renal) greater than 10 µM. The GI50 (SK-MEL-28 melanoma) was greater than 10 µM, the TGI (SK-MEL-28 melanoma) was greater than 10 µM and the GI50 (MDA-MB-435) was greater than 10 µM. It also gave a TGI (MDA-MB-435) greater than 10 µM, a GI50 (MALME-3M melanoma) greater than 10 µM and a TGI (MALME-3M melanoma) greater than 10 µM. The GI50 (MDA-MB-231 breast) was greater than 10 µM, the TGI (MDA-MB-231 breast) was greater than 10 µM and the GI50 (SNB-75 CNS) was greater than 10 µM. For the same compound, the TGI (SNB-75 CNS) was greater than 10 µM, the GI50 (A498 renal) was greater than 10 µM and the TGI (A498 renal) was greater than 10 µM.

Reference: PubChem BioAssay (NCI)
